According to patent US20240216356A1, “TASTE MASKED COMPOSTIONS OF 2,4,6-TRIFLUORO-N-[6-(1-METHYL-PIPERIDINE-4-CARBONYL)-PYRIDIN-2-YL]-BENZAMIDE HEMISUCCINATE, AND ORALLY DISENTEGRATING TABLET COMPRISING THE SAME” (priority 2021, published 2024):
In brackets after ≈: the same amount, converted by molar mass.

What was measured:
[1] = Solubility of lasmiditan over the pH range of the oral cavity; format: physicochemical
Protocol: Lasmiditan is highly soluble (dissolves readily in the mouth) but extremely bitter in taste, and has other negative sensory attributes, that preclude conventional ODT development. […] The efficacious dose is from 25 to 200 mg depending on patient weight or other factors. […] Extreme bitterness, mouth numbing, and other negative sensory attributes are present and persist for 30 minutes.

[2] = current marketed immediate release tablets; cited from earlier work

CN1CCC(C(=O)c2cccc(NC(=O)c3c(F)cc(F)cc3F)n2)CC1 [Lasmiditan, 2,4,6-trifluoro-N-[6-(1-methyl-piperidin-4-ylcarbonyl)-pyridin-2-yl]-benzamide]
solubility ([1]; pH 5, aqueous buffer): 35 mg/mL (≈ 92.7 mM)
solubility ([1]; pH 6.8, aqueous buffer): 9.8 mg/mL (≈ 26 mM)
onset of action (time to symptom relief) [2]: about 2 hours
